pIC50: −log10 of the molar value.

The assay deals with T1, SF9 affinity purified rat FPT (Rattus norvegicus, UniProt Q02293+Q04631).
T1 construct: made in house; host or cells: Sf9 insect cells
Put plainly: PFT (FPT) inhibitory activity assay, radiolabeled farnesyl pyrophosphate and biotinyl peptide, streptavidin beads. To be noted: HEPES buffer pH 7.4, 30° C., 30 minutes; read-out: FTase IC50. The format is biochemical. The method, then:
The PFT or FPT inhibitory activity of compounds of the present invention were assayed in HEPES buffer (pH 7.4) containing 5 mM potassium phosphate and 20 μM ZnCl2. The solution also contained 5 mM DTT (dithiothreitol), 5 mM MgCl2, and 0.1% PEG 8000. Assays were performed in 96 well plates (Wallec) and employed solutions composed of varying concentrations of a compound of the present invention in 10% DMSO (dimethylsulfoxide). […] After incubation at 30° C. for 30 minutes, the reaction was terminated by diluting the reaction 2.5-fold with a stop buffer containing 1.5 M magnesium acetate, 0.2 M H3PO4, 0.5% BSA (bovine serum albumin), and strepavidin beads (Amersham) at a concentration of 1.3 mg/mL. […] The assay was also carried out without 5 mM potassium phosphate.
As for `CC[C@H](CO)NC(=O)c1cccc(SCc2c(O[C@H](Cn3ccnc3)c3ccccc3)ccc3c2CCCC3=O)c1` [Compound 246, N-[(1R)-1-(Hydroxymethyl)propyl]-3-{[(2-{[(1S)-2-(1H-imidazol-1-yl)-1-phenylethyl]oxy}-5-oxo-5,6,7,8-tetrahydro-1-naphthalenyl)methyl]sulfanyl}benzamide], the negative-log IC50 (pIC50) (usually the negative decadic logarithm of the IC50, by convention in mol/L) was 9.70.

Take `C[C@H](O)CNC(=O)c1ccccc1S(=O)(=O)Cc1c(O[C@H](Cn2ccnc2)c2ccccc2)ccc2c1CCCC2=O` [Compound 201, N-[(2S)-2-Hydroxypropyl]-2-{[(2-{[(1S)-2-(1H-imidazol-1-yl)-1-phenylethyl]oxy}-5-oxo-5,6,7,8-tetrahydro-1-naphthalenyl)methyl]sulfonyl}benzamide]: the negative-log IC50 (pIC50) is 9.70.

Turning to `C=CCNC(=O)c1ccc(SCc2c(O[C@H](Cn3ccnc3)c3ccccc3)ccc3c2CCCC3=O)cc1` [Compound 209, N-Allyl-4-{[(2-{[(1S)-2-(1H-imidazol-1-yl)-1-phenylethyl]oxy}-5-oxo-5,6,7,8-tetrahydro-1-naphthalenyl)methyl]sulfanyl}benzamide], the pIC50 is 9.70.

Take `O=C(O)c1ccc(S(=O)(=O)Cc2c(O[C@H](Cn3ccnc3)c3ccccc3)ccc3c2CCCC3=O)cc1` [Compound 160, 4-{[(2-{[(1S)-2-(1H-Imidazol-1-yl)-1-phenylethyl]oxy}-5-oxo-5,6,7,8-tetrahydro-1-naphthalenyl)methyl]sulfonyl}benzoic Acid]: the negative logarithm of the IC50 (pIC50) is 8.00.

With `O=C1CCCc2c1ccc(O[C@H](Cn1ccnc1)c1ccccc1)c2CNc1cccc2cccnc12` [Compound 148, 6-((S)-2-Imidazol-1-yl-1-phenyl-ethoxy)-5-(quinolin-8-ylaminomethyl)-3,4-dihydro-2H-napthalen-1-one], the pIC50 was 8.28.

With `Cc1cc(C)c(OCc2c(O[C@H](Cn3ccnc3)c3ccccc3)ccc3c2CCCC3=O)c(C)c1` [Compound 89, 6-((1S)-2-Imidazolyl-1-phenylethoxy)-5-[(2,4,6-trimethylphenoxy)methyl]-2,3,4-trihydronaphthalen-1-one], the pIC50 is 8.15.

For the molecule `O=C1CCCc2c1ccc(O[C@H](Cn1ccnc1)c1ccccc1)c2CS(=O)(=O)c1ccccc1` [Compound 3], the pIC50 was 9.52.

As to `O=C(O)CCNC(=O)c1cccc(S(=O)(=O)Cc2c(O[C@H](Cn3ccnc3)c3ccccc3)ccc3c2CCCC3=O)c1` [Compound 168, N-3-{[(2-{[(1S)-2-(1H-Imidazol-1-yl)-1-phenylethyl]oxy}-5-oxo-5,6,7,8-tetrahydro-1-naphthalenyl)methyl]sulfonyl}benzoyl-β-alanine], the pIC50 was 8.00.

As for `O=C(Nc1c(O[C@H](Cn2ccnc2)c2cccnc2)ccc2c1CCCC2=O)c1cnccn1` [Compound 63e, Pyrazine-2-carboxylic acid [2-((S)-2-imidazol-1-yl-1-pyridin-3-yl-ethoxy)-5-oxo-5,6,7,8-tetrahydro-naphthalen-1-yl]-amide], the negative logarithm of the IC50 (pIC50) is 8.01.

Turning to `O=C1CCCc2c1ccc(O[C@H](Cn1ccnc1)c1ccccc1)c2CNc1ccc2c(c1)OCCO2` [Compound 152, 5-[(2,3-Dihydro-benzo[1,4]dioxin-6-ylamino)-methyl]-6-((S)-2-imidazol-1-yl-1-phenyl-ethoxy)-3,4-dihydro-2H-napthalen-1-one], the pIC50 was 8.30.

Regarding `O=C1CCCc2c1ccc(O[C@H](Cn1ccnc1)c1ccccc1)c2CCCc1ccccc1` [Compound 44b, 6-((S)-2-Imidazol-1-yl-1-phenyl-ethoxy)-5-(3-phenyl-propyl)-3,4-dihydro-2H-naphthalen-1-one], the negative logarithm of the IC50 (pIC50) is 8.51.

Take `CC[C@H](CO)NC(=O)c1ccccc1S(=O)(=O)Cc1c(O[C@H](Cn2ccnc2)c2ccccc2)ccc2c1CCCC2=O` [Compound 243, N-[(1R)-1-(Hydroxymethyl)propyl]-2-{[(2-{[(1S)-2-(1H-imidazol-1-yl)-1-phenylethyl]oxy}-5-oxo-5,6,7,8-tetrahydro-1-naphthalenyl)methyl]sulfonyl}benzamide]: the pIC50 is 9.70.

On to `O=C1CCCc2c1ccc(O[C@H](Cn1ccnc1)c1ccccc1)c2COc1ccc(OC(F)(F)F)cc1` [Compound 96, 6-((1S)-2-Imidazolyl-1-phenylethoxy)-5-{[4-(trifluoromethoxy)phenoxy]methyl}-2,3,4-trihydronaphthalen-1-one], for which the negative logarithm of the IC50 (pIC50) was 8.30.

For `COCCNC(=O)c1ccccc1S(=O)(=O)Cc1c(O[C@H](Cn2ccnc2)c2ccccc2)ccc2c1CCCC2=O` [Compound 264, 2-{[(2-{[(1S)-2-(1H-Imidazol-1-yl)-1-phenylethyl]oxy}-5-oxo-5,6,7,8-tetrahydro-1-naphthalenyl)-methyl]sulfonyl}-N-(2-methoxyethyl)benzamide], the pIC50 was 9.70.

In the case of `COC(=O)c1ccccc1S(=O)(=O)Cc1c(O[C@H](Cn2ccnc2)c2ccccc2)ccc2c1CCCC2=O` [Compound 154, Methyl 2-{[(2-{[(1S)-2-(1H-Imidazol-1-yl)-1-phenylethyl]oxy}-5-oxo-5,6,7,8-tetrahydro-1-naphthalenyl)methyl]sulfonyl}benzoate], the negative logarithm of the IC50 (pIC50) was 8.59.

As to `O=C1CCCc2c1ccc(O[C@H](Cn1ccnc1)c1cccnc1)c2CS(=O)(=O)c1ccccn1` [Compound 63ba, 6-((S)-2-Imidazol-1-yl-1-pyridin-3-yl-ethoxy)-5-(pyridin-2-ylsulfonylmethyl)-3,4-dihydro-2H-napthalen-1-one], the pIC50 is 9.80.

As to `O=C1CCCc2c1ccc(O[C@H](Cn1ccnc1)c1ccccc1)c2-c1ccsc1` [Compound 35], the negative-log IC50 (pIC50) is 7.82.

As for `O=C(Nc1c(O[C@H](Cn2ccnc2)c2ccccc2)ccc2c1CCCC2=O)c1cccnc1Cl` [Compound 40e, N-[2-((S)-2-Imidazol-1-yl-1-phenyl-ethoxy)-5-oxo-5,6,7,8-tetrahydro-naphthalen-1-yl]-2-chloro-nicotinamide], the pIC50 is 8.60.

Regarding `CNC(=O)c1cccc(SCc2c(O[C@H](Cn3ccnc3)c3ccccc3)ccc3c2CCCC3=O)c1` [Compound 192, 3-{[(2-{[(1S)-2-(1H-Imidazol-1-yl)-1-phenylethyl]oxy}-5-oxo-5,6,7,8-tetrahydro-1-naphthalenyl)methyl]sulfanyl}-N-methylbenzamide], the negative-log IC50 (pIC50) is 8.15.

`O=C1CCCc2c1ccc(O[C@H](Cn1ccnc1)c1ccccc1)c2CNS(=O)(=O)Cc1ccccc1` [Compound 42g]: the negative-log IC50 (pIC50) was 8.82.

For the molecule `O=C(NC1CC1)c1ccc(SCc2c(O[C@H](Cn3ccnc3)c3ccccc3)ccc3c2CCCC3=O)cc1` [Compound 226, N-Cyclopropyl-4-{[(2-{[(1S)-2-(1H-imidazol-1-yl)-1-phenylethyl]oxy}-5-oxo-5,6,7,8-tetrahydro-1-naphthalenyl)methyl]sulfanyl}benzamide], the pIC50 was 9.70.

In the case of `COC(=O)c1ccccc1SCc1c(O[C@H](Cn2ccnc2)c2ccccc2)ccc2c1CCCC2=O` [Compound 4, Methyl 2-{[2-((1S)-2-imidazolyl-1-phenylethoxy)-5-oxo-6,7,8-trihydronaphthyl]methylthio}benzoate], the pIC50 is 9.52.

Take `O=C1CCCc2c1ccc(O[C@H](Cn1ccnc1)c1cccnc1)c2NC(=O)c1cnnc2ccccc12` [Compound 63f, Cinnoline-4-carboxylic acid [2-((S)-2-imidazol-1-yl-1-pyridin-3-yl-ethoxy)-5-oxo-5,6,7,8-tetrahydro-naphthalen-1-yl]-amide]: the pIC50 is 7.89.

For the molecule `CC(O)CNC(=O)c1ccccc1S(=O)(=O)Cc1c(O[C@H](Cn2ccnc2)c2ccccc2)ccc2c1CCCC2=O` (stereo partly shown) [Compound 255], the negative logarithm of the IC50 (pIC50) was 9.70.

With `O=C1CCCc2c1ccc(O[C@H](Cn1ccnc1)c1ccc(F)cc1F)c2CS(=O)(=O)c1ccccn1` [Compound 63j, (S)-6-[-1-(2,4-Difluoro-phenyl)-2-imidazol-1-yl-1-ethoxy]-5-(pyridin-2-ylsulfonylmethyl)-3,4-dihydro-2H-naphthalen-1-one], the pIC50 is 8.82.

`O=C(NC(CO)CO)c1cccc(SCc2c(O[C@H](Cn3ccnc3)c3ccccc3)ccc3c2CCCC3=O)c1` [Compound 234, N-[2-Hydroxy-1-(hydroxymethyl)ethyl]-3-{[(2-{[(1S)-2-(1H-imidazol-1-yl)-1-phenylethyl]oxy}-5-oxo-5,6,7,8-tetrahydro-1-naphthalenyl)methyl]sulfanyl}benzamide]: the pIC50 was 9.60.

Regarding `C#CCNC(=O)c1cccc(S(=O)(=O)Cc2c(O[C@H](Cn3ccnc3)c3ccccc3)ccc3c2CCCC3=O)c1` [Compound 215, 3-{[(2-{[(1S)-2-(1H-Imidazol-1-yl)-1-phenylethyl]oxy}-5-oxo-5,6,7,8-tetrahydro-1-naphthalenyl)methyl]sulfonyl}-N-(2-propynyl)benzamide], the pIC50 was 9.70.

On to `CC(C)S(=O)(=O)Cc1c(O[C@H](Cn2ccnc2)c2cccnc2)ccc2c1CCCC2=O` [Compound 63b, 6-((S)-2-Imidazol-1-yl-1-pyridin-3-yl-ethoxy)-5-(propane-2-sulfonylmethyl)-3,4-dihydro-2H-napthalen-1-one], for which the negative logarithm of the IC50 (pIC50) was 9.03.

On to `C=CCc1c(OC(Cn2ccnc2)c2ccccc2Cl)ccc2c1CCCC2=O` (racemic) [Compound 59, (±)-6-[1-(2-Chlorophenyl)-2-imidazolylethoxy]-5-prop-2-enyl-2,3,4-trihydronaphthalen-1-one], for which the pIC50 was 7.92.

For the molecule `COC(=O)c1ccccc1S(=O)(=O)NCc1c(O[C@H](Cn2ccnc2)c2ccccc2)ccc2c1CCCC2=O` [Compound 42c], the negative logarithm of the IC50 (pIC50) was 8.46.

On to `O=C1CCCc2c1ccc(O[C@H](Cn1ccnc1CO)c1ccccc1)c2CS(=O)(=O)c1ccccc1` [Compound 10d, (S)-6{2-[2-(Hydroxymethyl)-1H-imidazol-1-yl]-1-phenylethoxy}-5-[(phenylsulfonyl)methyl]-3,4-dihydro-1(2H)-naphthalenone], for which the negative logarithm of the IC50 (pIC50) is 8.26.
